Patent US9169254B2, “Spiroimidazolone derivative” (Chugai Seiyaku Kabushiki Kaisha, priority 2009, dated 2015)

Molecular target: T1, human PTH1 receptor (Homo sapiens, UniProt Q03431)
T1 sequence (Q03431 27-593): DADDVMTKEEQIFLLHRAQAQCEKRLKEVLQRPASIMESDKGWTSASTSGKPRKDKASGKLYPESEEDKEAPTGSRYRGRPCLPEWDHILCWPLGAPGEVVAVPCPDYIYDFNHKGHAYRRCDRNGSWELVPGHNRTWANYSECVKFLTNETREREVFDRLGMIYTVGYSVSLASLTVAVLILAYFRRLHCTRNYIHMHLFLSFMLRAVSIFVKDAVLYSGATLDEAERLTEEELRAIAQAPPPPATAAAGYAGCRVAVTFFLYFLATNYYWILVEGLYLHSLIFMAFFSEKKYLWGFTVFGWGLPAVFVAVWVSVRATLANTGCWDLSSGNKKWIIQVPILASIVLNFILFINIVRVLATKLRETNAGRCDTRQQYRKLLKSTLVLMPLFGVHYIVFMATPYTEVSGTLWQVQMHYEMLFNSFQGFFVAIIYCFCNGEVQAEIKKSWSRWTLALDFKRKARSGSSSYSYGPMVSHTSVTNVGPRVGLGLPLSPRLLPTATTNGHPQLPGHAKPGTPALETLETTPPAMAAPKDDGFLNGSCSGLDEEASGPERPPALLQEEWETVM
Experiment: In vitro cAMP signal activity in HKRK-B7 cells (LLC-PK1 cells overexpressing the human PTH1 receptor)
Assay type: cell-based
Details: HKRK-B7 cells; compound at 1×10^−3 M; cAMP produced as percentage of that produced by hPTH(1-34) at 100 nM

cAMP production activity (%)	SMILES
64	Cc1cc(C(=O)N2CC[C@@H](N(C)C)C2)cc(C)c1/C=C/S(=O)(=O)N1CCC2(CC1)N=C(c1cccc(OC(F)(F)F)c1)NC2=O [Compound 399, 8-{(E)-2-[4-((R)-3-dimethylamino-pyrrolidine-1-carbonyl)-2,6-dimethyl-phenyl]-ethenesulfonyl}-2-(3-trifluoromethoxy-phenyl)-1,3,8-triaza-spiro[4.5]dec-1-en-4-one]
76	Cc1cc(C(=O)N2CCC(O)CC2)cc(C)c1/C=C/S(=O)(=O)N1CCC2(CC1)N=C(c1cccc(OC(F)(F)F)c1)NC2=O [Compound 400, 8-{(E)-2-[4-(4-hydroxy-piperidine-1-carbonyl)-2,6-dimethyl-phenyl]-ethenesulfonyl}-2-(3-trifluoromethoxy-phenyl)-1,3,8-triaza-spiro[4.5]dec-1-en-4-one]
83	Cc1cc(C(=O)N2CC[C@@H](O)C2)cc(C)c1/C=C/S(=O)(=O)N1CCC2(CC1)N=C(c1cccc(OC(F)(F)F)c1)NC2=O [Compound 401, 8-{(E)-2-[4-((R)-3-hydroxy-pyrrolidine-1-carbonyl)-2,6-dimethyl-phenyl]-ethenesulfonyl}-2-(3-trifluoromethoxy-phenyl)-1,3,8-triaza-spiro[4.5]dec-1-en-4-one]
85	Cc1cc(C(=O)N2CC[C@H](O)C2)cc(C)c1/C=C/S(=O)(=O)N1CCC2(CC1)N=C(c1cccc(OC(F)(F)F)c1)NC2=O [Compound 402, 8-{(E)-2-[4-((S)-3-hydroxy-pyrrolidine-1-carbonyl)-2,6-dimethyl-phenyl]-ethenesulfonyl}-2-(3-trifluoromethoxy-phenyl)-1,3,8-triaza-spiro[4.5]dec-1-en-4-one]
51	Cc1cc(C(=O)N2CCC(O)(CO)CC2)cc(C)c1/C=C/S(=O)(=O)N1CCC2(CC1)N=C(c1cccc(OC(F)(F)F)c1)NC2=O [Compound 403, 8-{(E)-2-[4-(4-hydroxy-4-hydroxymethyl-piperidine-1-carbonyl)-2,6-dimethyl-phenyl]-ethenesulfonyl}-2-(3-trifluoromethoxy-phenyl)-1,3,8-triaza-spiro[4.5]dec-1-en-4-one]
88	Cc1cc(C(=O)N2CC[C@@H](N)C2)cc(C)c1/C=C/S(=O)(=O)N1CCC2(CC1)N=C(c1cccc(OC(F)(F)F)c1)NC2=O [Compound 404, 8-{(E)-2-[4-((R)-3-amino-pyrrolidine-1-carbonyl)-2,6-dimethyl-phenyl]-ethenesulfonyl}-2-(3-trifluoromethoxy-phenyl)-1,3,8-triaza-spiro[4.5]dec-1-en-4-one]
7.7	Cc1cc(C(=O)N2CCC(N(C)C)CC2)cc(C)c1/C=C/S(=O)(=O)N1CCC2(CC1)N=C(c1cccc(OC(F)(F)F)c1)NC2=O [Compound 405, 8-{(E)-2-[4-(4-dimethylamino-piperidine-1-carbonyl)-2,6-dimethyl-phenyl]-ethenesulfonyl}-2-(3-trifluoromethoxy-phenyl)-1,3,8-triaza-spiro[4.5]dec-1-en-4-one]
100	Cc1cc(C(=O)N2C[C@H](NC(C)C)[C@@H](O)C2)cc(C)c1/C=C/S(=O)(=O)N1CCC2(CC1)N=C(c1cccc(OC(F)(F)F)c1)NC2=O [Compound 406, 8-{(E)-2-[4-((3S,4S)-3-hydroxy-4-isopropylamino-pyrrolidine-1-carbonyl)-2,6-dimethyl-phenyl]-ethenesulfonyl}-2-(3-trifluoromethoxy-phenyl)-1,3,8-triaza-spiro[4.5]dec-1-en-4-one]
49	Cc1cc(C(=O)N2CCC(OCCN(C)C)CC2)cc(C)c1/C=C/S(=O)(=O)N1CCC2(CC1)N=C(c1cccc(OC(F)(F)F)c1)NC2=O [Compound 407, 8-((E)-2-{4-[4-(2-dimethylamino-ethoxy)-piperidine-1-carbonyl]-2,6-dimethyl-phenyl}-ethenesulfonyl)-2-(3-trifluoromethoxy-phenyl)-1,3,8-triaza-spiro[4.5]dec-1-en-4-one]
117	Cc1cc(C(=O)N2CC(O)C2)cc(C)c1/C=C/S(=O)(=O)N1CCC2(CC1)N=C(c1cccc(OC(F)(F)F)c1)NC2=O [Compound 408, 8-{(E)-2-[4-(3-hydroxy-azetidine-1-carbonyl)-2,6-dimethyl-phenyl]-ethenesulfonyl}-2-(3-trifluoromethoxy-phenyl)-1,3,8-triaza-spiro[4.5]dec-1-en-4-one]
55	Cc1c(CCS(=O)(=O)N2CCC3(CC2)N=C(c2cccc(OC(F)(F)F)c2)NC3=O)cccc1C(=O)N(C)C [Compound 409, 2,N,N-Trimethyl-3-{2-[4-oxo-2-(3-trifluoromethoxy-phenyl)-1,3,8-triaza-spiro[4.5]dec-1-ene-8-sulfonyl]-ethyl}-benzamide]
96	Cc1c(CCS(=O)(=O)N2CCC3(CC2)N=C(c2cccc(OC(F)(F)F)c2)NC3=O)cccc1C(N)=O [Compound 410, 2-methyl-3-{2-[4-oxo-2-(3-trifluoromethoxy-phenyl)-1,3,8-triaza-spiro[4.5]dec-1-ene-8-sulfonyl]-ethyl}-benzamide]
54	Cc1c(CCS(=O)(=O)N2CCC3(CC2)N=C(c2cccc(OC(F)(F)F)c2)NC3=O)cccc1C(=O)N1CCOCC1 [Compound 411, 8-{2-[2-methyl-3-(morpholine-4-carbonyl)-phenyl]-ethanesulfonyl}-2-(3-trifluoromethoxy-phenyl)-1,3,8-triaza-spiro[4.5]dec-1-en-4-one]
54	Cc1ccc(C(=O)N(C)C)cc1CCS(=O)(=O)N1CCC2(CC1)N=C(c1cccc(OC(F)(F)F)c1)NC2=O [Compound 412, 4,N,N-Trimethyl-3-{2-[4-oxo-2-(3-trifluoromethoxy-phenyl)-1,3,8-triaza-spiro[4.5]dec-1-ene-8-sulfonyl]-ethyl}-benzamide]
56	Cc1ccc(C(=O)N(C)CCO)cc1CCS(=O)(=O)N1CCC2(CC1)N=C(c1cccc(OC(F)(F)F)c1)NC2=O [Compound 413, N-(2-hydroxy-ethyl)-4,N-dimethyl-3-{2-[4-oxo-2-(3-trifluoromethoxy-phenyl)-1,3,8-triaza-spiro[4.5]dec-1-ene-8-sulfonyl]-ethyl}-benzamide]
69	Cc1ccc(C(=O)N2CCN(C)CC2)cc1CCS(=O)(=O)N1CCC2(CC1)N=C(c1cccc(OC(F)(F)F)c1)NC2=O [Compound 414, 8-{2-[2-methyl-5-(4-methyl-piperazine-1-carbonyl)-phenyl]-ethanesulfonyl}-2-(3-trifluoromethoxy-phenyl)-1,3,8-triaza-spiro[4.5]dec-1-en-4-one]
56	CNC(=O)c1ccc(C)c(CCS(=O)(=O)N2CCC3(CC2)N=C(c2cccc(OC(F)(F)F)c2)NC3=O)c1 [Compound 415, 4,N-dimethyl-3-{2-[4-oxo-2-(3-trifluoromethoxy-phenyl)-1,3,8-triaza-spiro[4.5]dec-1-ene-8-sulfonyl]-ethyl}-benzamide]
66	Cc1cc(C(=O)N2CCN(CCO)CC2)ccc1CCS(=O)(=O)N1CCC2(CC1)N=C(c1cccc(OC(F)(F)F)c1)NC2=O [Compound 416, 8-(2-{4-[4-(2-Hydroxy-ethyl)-piperazine-1-carbonyl]-2-methyl-phenyl}-ethanesulfonyl)-2-(3-trifluoromethoxy-phenyl)-1,3,8-triaza-spiro[4.5]dec-1-en-4-one]
97	Cc1cc(C(=O)N2CCSC2)ccc1CCS(=O)(=O)N1CCC2(CC1)N=C(c1cccc(OC(F)(F)F)c1)NC2=O [Compound 417, 8-{2-[2-methyl-4-(thiazolidine-3-carbonyl)-phenyl]-ethanesulfonyl}-2-(3-trifluoromethoxy-phenyl)-1,3,8-triaza-spiro[4.5]dec-1-en-4-one]
84	Cc1cc(C(=O)N(C)C)c(F)cc1CCS(=O)(=O)N1CCC2(CC1)N=C(c1cccc(C(F)(F)F)c1)NC2=O [Compound 418, 2-Fluoro-5,N,N-trimethyl-4-{2-[4-oxo-2-(3-trifluoromethyl-phenyl)-1,3,8-triaza-spiro[4.5]dec-1-ene-8-sulfonyl]-ethyl}-benzamide]
96	Cc1cc(C(=O)N2CCC(O)CC2)c(F)cc1CCS(=O)(=O)N1CCC2(CC1)N=C(c1cccc(C(F)(F)F)c1)NC2=O [Compound 419, 8-{2-[5-fluoro-4-(4-hydroxy-piperidine-1-carbonyl)-2-methyl-phenyl]-ethanesulfonyl}-2-(3-trifluoromethyl-phenyl)-1,3,8-triaza-spiro[4.5]dec-1-en-4-one]
31	O=C(Cc1c[nH]c2cccc(CCS(=O)(=O)N3CCC4(CC3)N=C(C3CCCCC3)NC4=O)c12)NCc1ccccc1 [Compound 420, N-Benzyl-2-{4-[2-(2-cyclohexyl-4-oxo-1,3,8-triaza-spiro[4.5]dec-1-ene-8-sulfonyl)-ethyl]-1H-indol-3-yl}-acetamide]
68	CNC(=O)c1ccccc1CCS(=O)(=O)N1CCC2(CC1)N=C(C1CCCCC1)NC2=O [Compound 421, 2-[2-(2-Cyclohexyl-4-oxo-1,3,8-triaza-spiro[4.5]dec-1-ene-8-sulfonyl)-ethyl]-N-methyl-benzamide]
